Test results taken from ChEMBL document CHEMBL5058643, “Data for DCP probe BI-2081” (2022).
Each block holds one compound with its values, some of them ahead of it. Calls of active or inactive are those of the source. No cut-off for these calls is given here.

What was measured:
[1] = target: Voltage-dependent L-type calcium channel subunit alpha-1C (dihydropyridine site) (Rattus norvegicus, UniProt P22002); assay: CA+/DHPSI/R Eurofins SafetyScreen44 (BI); set-up: mode of action inhibitor; details: rat brain, probe [3H](+)PN200-110, compound concentration 10 uM, read-out: % Ctrl
[2] = target: Adenosine receptor A2a (Homo sapiens) (UniProt P29274); assay: A2A/H Eurofins SafetyScreen44 (BI); details: filed as antagonist, Compound concentration 10.0 uM
[3] = target: Beta-1 adrenergic receptor (Homo sapiens) (UniProt P08588); assay: BETA1/HUM Eurofins SafetyScreen44 (BI); details: Compound concentration 10.0 uM
[4] = target: Sodium-dependent dopamine transporter (Homo sapiens) (UniProt Q01959); details: Compound concentration 10.0 uM
[5] = target: T1, Muscarinic acetylcholine receptor M2 (Homo sapiens) (UniProt P08172); details: Compound concentration 10.0 uM
T1 sequence (whole entry): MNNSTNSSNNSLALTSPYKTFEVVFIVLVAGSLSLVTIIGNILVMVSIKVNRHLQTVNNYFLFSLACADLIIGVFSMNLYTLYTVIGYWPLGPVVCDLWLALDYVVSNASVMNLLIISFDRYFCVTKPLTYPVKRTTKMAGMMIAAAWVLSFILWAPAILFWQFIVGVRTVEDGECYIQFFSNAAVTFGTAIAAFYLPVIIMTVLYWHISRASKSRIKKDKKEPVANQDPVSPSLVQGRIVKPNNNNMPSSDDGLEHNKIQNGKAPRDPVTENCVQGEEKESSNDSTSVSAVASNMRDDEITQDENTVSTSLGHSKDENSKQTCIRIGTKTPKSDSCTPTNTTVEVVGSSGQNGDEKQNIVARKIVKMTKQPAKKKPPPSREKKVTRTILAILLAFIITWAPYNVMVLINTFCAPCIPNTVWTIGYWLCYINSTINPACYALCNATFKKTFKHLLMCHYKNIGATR

[6] = target: T2, Alpha-2C adrenergic receptor (Homo sapiens) (UniProt P18825); assay: ALPHA2C/H Eurofins SafetyScreen44 (BI)
T2 sequence (whole entry): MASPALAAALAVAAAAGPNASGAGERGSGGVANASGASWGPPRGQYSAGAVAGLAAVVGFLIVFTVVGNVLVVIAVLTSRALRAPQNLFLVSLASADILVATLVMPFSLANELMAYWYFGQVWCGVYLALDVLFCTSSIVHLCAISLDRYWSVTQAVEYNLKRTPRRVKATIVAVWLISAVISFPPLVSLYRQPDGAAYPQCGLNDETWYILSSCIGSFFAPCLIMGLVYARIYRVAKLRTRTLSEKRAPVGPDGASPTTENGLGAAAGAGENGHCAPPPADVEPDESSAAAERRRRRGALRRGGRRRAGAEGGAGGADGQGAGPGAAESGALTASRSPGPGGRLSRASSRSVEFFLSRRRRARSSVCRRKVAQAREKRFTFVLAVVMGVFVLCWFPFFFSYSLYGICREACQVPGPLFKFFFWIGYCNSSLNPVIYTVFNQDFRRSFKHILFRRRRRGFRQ

[7] = target: T3, Thyroid hormone receptor alpha (Rattus norvegicus) (UniProt P63059); assay: THYROID HORM Eurofins SafetyScreen44 (BI)
T3 sequence (whole entry): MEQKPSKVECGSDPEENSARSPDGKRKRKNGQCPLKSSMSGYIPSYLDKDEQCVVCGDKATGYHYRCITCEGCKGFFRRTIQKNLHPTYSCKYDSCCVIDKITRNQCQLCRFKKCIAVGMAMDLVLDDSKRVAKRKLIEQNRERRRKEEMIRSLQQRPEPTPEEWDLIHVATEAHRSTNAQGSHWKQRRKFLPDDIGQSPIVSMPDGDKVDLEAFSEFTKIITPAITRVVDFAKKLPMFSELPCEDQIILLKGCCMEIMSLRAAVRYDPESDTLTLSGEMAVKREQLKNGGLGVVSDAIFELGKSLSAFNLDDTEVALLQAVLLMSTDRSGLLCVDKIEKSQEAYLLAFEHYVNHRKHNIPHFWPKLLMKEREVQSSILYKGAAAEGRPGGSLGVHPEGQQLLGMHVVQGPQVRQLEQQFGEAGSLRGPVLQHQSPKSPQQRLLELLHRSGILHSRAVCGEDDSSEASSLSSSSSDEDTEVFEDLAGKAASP

[8] = target: P2Y purinoceptor 1 (Rattus norvegicus) (UniProt P49651); assay: P2Y/RAT Eurofins SafetyScreen44 (BI); details: Compound concentration 10.0 uM
[9] = target: Glutamate receptor ionotropic, NMDA 2A (Rattus norvegicus) (UniProt Q00959); assay: NMDAPHSI/R Eurofins SafetyScreen44 (BI); details: Compound concentration 10.0 uM
[10] = target: Endothelin receptor type B (Homo sapiens) (UniProt P24530); assay: ETB/HUM Eurofins SafetyScreen44 (BI); details: Compound concentration 10.0 uM
[11] = target: T4, Free fatty acid receptor 1 (Homo sapiens, UniProt O14842); assay: IPOne assay
[12] = target: Nicotinic acetylcholine receptor alpha-1/beta-1 (Homo sapiens) (UniProt P02708+P11230); assay: NACH_BS_N/H Eurofins SafetyScreen44 (BI); assay type: protein-complex assay; details: Compound concentration 10.0 uM
[13] = target: Sigma non-opioid intracellular receptor 1 (Homo sapiens) (UniProt Q99720); assay: SIGMA1/HU Eurofins SafetyScreen44 (BI); details: Compound concentration 10.0 uM
[14] = target: T5, 5-hydroxytryptamine receptor 1A (Homo sapiens) (UniProt P08908); assay: 5HT1A/HU Eurofins SafetyScreen44 (BI); details: Compound concentration 10.0 uM
T5 sequence (whole entry): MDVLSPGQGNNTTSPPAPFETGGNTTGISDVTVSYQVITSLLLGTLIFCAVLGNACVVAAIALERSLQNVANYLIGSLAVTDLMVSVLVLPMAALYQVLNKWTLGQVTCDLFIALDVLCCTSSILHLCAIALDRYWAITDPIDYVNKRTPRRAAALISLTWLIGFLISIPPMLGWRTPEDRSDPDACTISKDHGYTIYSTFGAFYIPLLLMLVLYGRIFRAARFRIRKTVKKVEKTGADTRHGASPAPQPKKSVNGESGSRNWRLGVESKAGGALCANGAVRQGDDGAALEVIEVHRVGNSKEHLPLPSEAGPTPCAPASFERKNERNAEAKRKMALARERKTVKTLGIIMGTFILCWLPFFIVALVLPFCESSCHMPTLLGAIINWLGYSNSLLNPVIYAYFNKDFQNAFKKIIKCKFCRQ

[15] = target: Beta-1 adrenergic receptor (Homo sapiens) (UniProt P08588); details: Compound concentration 10.0 uM
[16] = target: T4, Free fatty acid receptor 1; assay: FFAR1 biochemical assay
[17] = target: Histamine H3 receptor (Homo sapiens) (UniProt Q9Y5N1); assay: H3/H Eurofins SafetyScreen44 (BI); details: Compound concentration 10.0 uM
[18] = target: Peroxisome proliferator-activated receptor gamma (Homo sapiens) (UniProt P37231); assay: PPARG/H AG Eurofins SafetyScreen44 (BI); details: filed as agonist, Compound concentration 10.0 uM

Sequence of Beta-1 adrenergic receptor (Homo sapiens) (P08588 whole entry, looked up): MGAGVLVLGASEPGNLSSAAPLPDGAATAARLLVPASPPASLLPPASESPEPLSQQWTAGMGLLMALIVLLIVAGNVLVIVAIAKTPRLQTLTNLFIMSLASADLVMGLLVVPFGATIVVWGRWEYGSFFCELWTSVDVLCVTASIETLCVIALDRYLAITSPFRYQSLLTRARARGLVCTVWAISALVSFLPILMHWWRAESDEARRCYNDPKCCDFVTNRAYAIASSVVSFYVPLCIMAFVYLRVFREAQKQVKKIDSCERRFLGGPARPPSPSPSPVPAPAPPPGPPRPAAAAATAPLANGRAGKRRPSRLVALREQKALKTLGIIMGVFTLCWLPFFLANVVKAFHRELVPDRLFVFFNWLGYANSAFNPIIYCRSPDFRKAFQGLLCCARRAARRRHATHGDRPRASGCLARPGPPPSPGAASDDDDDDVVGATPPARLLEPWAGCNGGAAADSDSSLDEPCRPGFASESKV
Sequence of Sodium-dependent dopamine transporter (Homo sapiens) (Q01959 whole entry): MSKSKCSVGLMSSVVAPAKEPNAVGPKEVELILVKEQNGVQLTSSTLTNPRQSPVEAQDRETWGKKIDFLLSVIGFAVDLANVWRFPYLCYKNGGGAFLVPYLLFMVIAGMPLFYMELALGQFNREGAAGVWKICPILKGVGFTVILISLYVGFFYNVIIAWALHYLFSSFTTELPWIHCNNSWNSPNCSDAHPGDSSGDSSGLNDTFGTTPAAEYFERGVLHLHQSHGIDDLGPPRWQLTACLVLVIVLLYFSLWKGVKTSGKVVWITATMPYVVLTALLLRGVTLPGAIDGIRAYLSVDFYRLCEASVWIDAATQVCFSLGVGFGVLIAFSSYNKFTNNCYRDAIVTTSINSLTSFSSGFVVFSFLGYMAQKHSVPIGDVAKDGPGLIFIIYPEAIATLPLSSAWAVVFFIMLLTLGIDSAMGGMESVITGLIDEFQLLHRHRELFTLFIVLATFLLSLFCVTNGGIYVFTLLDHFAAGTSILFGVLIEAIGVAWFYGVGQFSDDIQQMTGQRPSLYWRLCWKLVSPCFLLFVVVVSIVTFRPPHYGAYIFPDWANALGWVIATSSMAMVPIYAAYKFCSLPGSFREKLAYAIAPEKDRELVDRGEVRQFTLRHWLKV
T4 sequence (O14842 whole entry): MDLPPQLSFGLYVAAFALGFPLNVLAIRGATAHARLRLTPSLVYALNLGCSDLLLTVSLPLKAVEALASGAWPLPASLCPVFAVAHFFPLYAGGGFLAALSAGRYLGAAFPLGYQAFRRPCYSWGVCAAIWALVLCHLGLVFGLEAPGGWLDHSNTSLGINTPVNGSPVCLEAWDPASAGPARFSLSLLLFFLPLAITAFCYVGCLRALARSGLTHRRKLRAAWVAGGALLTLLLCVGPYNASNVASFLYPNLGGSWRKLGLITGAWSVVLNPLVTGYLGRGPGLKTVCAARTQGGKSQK
Sequence of Voltage-dependent L-type calcium channel subunit alpha-1C (dihydropyridine site) (P22002 whole entry): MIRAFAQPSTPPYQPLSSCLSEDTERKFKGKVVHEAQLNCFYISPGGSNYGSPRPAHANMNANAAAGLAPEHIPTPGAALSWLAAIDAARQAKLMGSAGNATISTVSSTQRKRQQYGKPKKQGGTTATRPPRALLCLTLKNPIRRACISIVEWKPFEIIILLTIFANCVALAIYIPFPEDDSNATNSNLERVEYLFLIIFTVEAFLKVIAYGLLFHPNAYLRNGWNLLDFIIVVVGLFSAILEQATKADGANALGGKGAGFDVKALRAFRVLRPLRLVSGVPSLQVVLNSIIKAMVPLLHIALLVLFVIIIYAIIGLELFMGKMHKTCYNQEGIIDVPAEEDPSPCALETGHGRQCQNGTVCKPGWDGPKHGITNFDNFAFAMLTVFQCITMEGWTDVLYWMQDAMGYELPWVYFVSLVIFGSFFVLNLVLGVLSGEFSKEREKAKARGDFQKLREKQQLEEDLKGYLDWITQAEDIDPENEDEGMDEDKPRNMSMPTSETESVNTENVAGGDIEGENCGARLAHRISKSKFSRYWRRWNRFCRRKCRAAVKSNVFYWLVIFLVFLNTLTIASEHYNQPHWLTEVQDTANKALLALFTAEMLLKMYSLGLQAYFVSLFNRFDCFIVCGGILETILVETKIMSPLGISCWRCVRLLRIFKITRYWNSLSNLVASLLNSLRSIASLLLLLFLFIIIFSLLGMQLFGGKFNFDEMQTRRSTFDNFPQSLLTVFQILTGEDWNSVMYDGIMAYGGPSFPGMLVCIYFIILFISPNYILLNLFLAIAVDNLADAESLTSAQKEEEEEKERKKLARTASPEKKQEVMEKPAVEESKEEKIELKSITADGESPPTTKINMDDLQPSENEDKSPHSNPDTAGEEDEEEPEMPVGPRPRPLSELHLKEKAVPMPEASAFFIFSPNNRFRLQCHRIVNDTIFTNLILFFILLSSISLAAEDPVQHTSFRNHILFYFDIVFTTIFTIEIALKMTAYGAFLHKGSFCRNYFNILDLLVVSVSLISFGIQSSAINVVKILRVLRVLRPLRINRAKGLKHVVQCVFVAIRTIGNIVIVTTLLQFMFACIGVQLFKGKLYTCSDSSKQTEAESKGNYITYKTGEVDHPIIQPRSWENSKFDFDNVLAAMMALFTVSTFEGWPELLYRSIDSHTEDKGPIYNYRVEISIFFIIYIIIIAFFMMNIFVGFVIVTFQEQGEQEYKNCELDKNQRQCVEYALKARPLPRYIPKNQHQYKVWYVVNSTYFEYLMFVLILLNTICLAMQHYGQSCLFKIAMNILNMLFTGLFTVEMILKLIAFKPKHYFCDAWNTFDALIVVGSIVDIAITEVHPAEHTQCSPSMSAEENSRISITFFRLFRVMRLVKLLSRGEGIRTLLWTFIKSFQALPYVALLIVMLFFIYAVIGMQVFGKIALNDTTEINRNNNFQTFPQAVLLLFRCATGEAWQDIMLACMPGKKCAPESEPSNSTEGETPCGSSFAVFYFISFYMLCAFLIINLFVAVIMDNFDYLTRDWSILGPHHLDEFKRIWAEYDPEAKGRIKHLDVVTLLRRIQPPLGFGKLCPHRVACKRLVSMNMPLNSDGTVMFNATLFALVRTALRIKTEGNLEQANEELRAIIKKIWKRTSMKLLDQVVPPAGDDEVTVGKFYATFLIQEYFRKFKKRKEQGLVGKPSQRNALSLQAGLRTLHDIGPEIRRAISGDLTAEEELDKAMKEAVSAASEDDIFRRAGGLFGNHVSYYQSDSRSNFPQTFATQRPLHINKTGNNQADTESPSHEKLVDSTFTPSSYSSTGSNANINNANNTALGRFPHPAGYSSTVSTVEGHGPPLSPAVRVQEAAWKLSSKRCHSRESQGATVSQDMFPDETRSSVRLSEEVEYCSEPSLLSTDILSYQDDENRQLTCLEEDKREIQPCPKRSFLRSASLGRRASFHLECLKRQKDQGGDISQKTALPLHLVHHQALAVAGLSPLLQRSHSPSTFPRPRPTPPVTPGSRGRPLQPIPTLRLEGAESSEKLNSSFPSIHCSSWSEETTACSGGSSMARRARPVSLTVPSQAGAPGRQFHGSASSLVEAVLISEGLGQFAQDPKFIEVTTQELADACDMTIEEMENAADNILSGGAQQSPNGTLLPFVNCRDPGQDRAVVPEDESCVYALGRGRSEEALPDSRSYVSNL
Sequence of Glutamate receptor ionotropic, NMDA 2A (Rattus norvegicus) (Q00959 23-1464 limits assumed): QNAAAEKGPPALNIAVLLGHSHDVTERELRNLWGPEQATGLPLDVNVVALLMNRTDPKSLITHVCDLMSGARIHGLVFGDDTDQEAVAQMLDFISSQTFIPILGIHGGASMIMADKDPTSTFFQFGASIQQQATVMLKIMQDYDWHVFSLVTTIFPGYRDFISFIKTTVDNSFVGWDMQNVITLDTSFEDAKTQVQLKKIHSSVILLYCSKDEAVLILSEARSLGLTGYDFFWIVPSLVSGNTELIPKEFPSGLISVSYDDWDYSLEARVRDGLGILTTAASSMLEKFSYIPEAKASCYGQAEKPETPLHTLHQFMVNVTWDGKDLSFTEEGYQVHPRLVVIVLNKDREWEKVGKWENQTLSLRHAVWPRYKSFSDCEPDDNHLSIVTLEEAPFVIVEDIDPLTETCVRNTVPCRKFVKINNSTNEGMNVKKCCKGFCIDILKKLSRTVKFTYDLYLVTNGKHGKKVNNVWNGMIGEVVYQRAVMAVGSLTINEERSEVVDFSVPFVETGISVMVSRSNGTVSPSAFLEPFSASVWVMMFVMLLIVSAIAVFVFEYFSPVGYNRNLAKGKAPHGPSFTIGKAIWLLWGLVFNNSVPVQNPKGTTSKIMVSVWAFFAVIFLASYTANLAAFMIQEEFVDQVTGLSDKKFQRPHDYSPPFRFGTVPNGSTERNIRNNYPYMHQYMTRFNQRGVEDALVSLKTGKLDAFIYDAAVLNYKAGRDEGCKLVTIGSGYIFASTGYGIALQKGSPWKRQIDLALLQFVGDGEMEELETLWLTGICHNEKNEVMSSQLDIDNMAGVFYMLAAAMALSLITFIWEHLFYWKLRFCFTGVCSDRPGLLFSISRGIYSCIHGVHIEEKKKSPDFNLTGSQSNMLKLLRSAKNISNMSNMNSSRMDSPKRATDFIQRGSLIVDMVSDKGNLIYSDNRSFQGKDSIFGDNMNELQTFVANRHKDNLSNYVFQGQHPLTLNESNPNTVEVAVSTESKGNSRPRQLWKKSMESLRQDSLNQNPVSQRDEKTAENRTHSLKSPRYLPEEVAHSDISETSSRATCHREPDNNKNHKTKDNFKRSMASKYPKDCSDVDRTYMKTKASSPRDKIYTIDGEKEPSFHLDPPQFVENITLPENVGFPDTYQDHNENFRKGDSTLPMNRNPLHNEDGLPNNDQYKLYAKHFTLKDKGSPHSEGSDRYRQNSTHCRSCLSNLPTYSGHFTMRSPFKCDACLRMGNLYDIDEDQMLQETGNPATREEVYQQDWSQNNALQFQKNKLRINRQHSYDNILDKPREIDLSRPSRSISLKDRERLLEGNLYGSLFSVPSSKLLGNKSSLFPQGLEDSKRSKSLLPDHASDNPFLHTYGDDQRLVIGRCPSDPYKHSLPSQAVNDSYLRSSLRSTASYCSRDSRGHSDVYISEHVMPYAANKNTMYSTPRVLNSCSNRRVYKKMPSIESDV

inhibition [4]: 1.43%
inhibition [5]: -3.61%
Compound: COCCCS(=O)(=O)c1cc(C)c(-c2ccc(F)c3c2CC[C@H]3Oc2ccc3c(c2)OC[C@H]3CC(=O)O)c(C)c1
activity at 10 µM [1]: 90% (not active)
residual activity [2]: 102%
residual activity [3]: 88%

EC50 [11]: 3 nM (active)
inhibition [4]: 26.8%
inhibition [5]: -3.23%
inhibition [15]: 4.62%
Ki [16]: 23 nM (active)
Compound: Cc1cc(OCCC(C)(C)O)cc(C)c1-c1ccc(F)c2c1CC[C@H]2Oc1ccc2c(c1)OC[C@H]2CC(=O)O
residual activity ([6]; Compound concentration 0.1 uM): 93%
residual activity ([6]; Compound concentration 0.3 uM): 100%
residual activity ([6]; Compound concentration 1.0 uM): 95%
residual activity ([6]; Compound concentration 3.0 uM): 82%
residual activity ([6]; Compound concentration 10.0 uM): 23%
residual activity ([6]; Compound concentration 30.0 uM): 1%
residual activity ([7]; Compound concentration 0.3 uM): 97%
residual activity ([7]; Compound concentration 1.0 uM): 95%
residual activity ([7]; Compound concentration 3.0 uM): 77%
residual activity ([7]; Compound concentration 10.0 uM): 39.5%
residual activity ([7]; Compound concentration 30.0 uM): 2%
residual activity [8]: 87%
residual activity [9]: 103%
residual activity [10]: 63%
residual activity [12]: 84%
residual activity [13]: 91%
residual activity [14]: 118%
residual activity [17]: 111%
residual activity [18]: 8%
